Source: patent US6783775B2, “Serum-derived factor inducing cell differentiation and medical uses thereof” (Hadasit Medical Research Services and Development Ltd., priority 1996, dated 2004)

Columns and labels:
HL-60 cells [1] = experiment: Leukemic cell cloning (colony formation) of HL-60 cells in semi-solid medium; assay type: cell-based, human; settings: HL-60 600 cells/ml; 8 days; mean of two experiments; G-CSF 1000 U/ml, IL-1 100 U/ml
Experimental: (§1) Cell lines included the human myelomonocytic cells HL-60, GM-CSF-dependent human myelomonocytic cells LK (established in the inventors' laboratory) and the murine monocytic cell line WEHI. Cell lines were maintained by sub-culturing every 3-4 days at 2.5×10^5 cell/ml in either alpha minimal essential or RPMI-1640 media (GIBCO, Grand Island, N.Y.) supplemented with 10-20% fetal calf serum (FCS) (Bio Labs Jerusalem, Israel). The cultures were incubated at 37° C., in a humidified atmosphere of 5% CO2 in air. The concentration of viable cells was determined by the trypan blue exclusion technique. Total cell count was performed using a Coulter counter.
(§2) 300-1000 cells/ml were seeded in semi-solid medium composed of 0.83% methyl-cellulose (Fisher Scientific company, Fair Lawn, N.J.) or 0.3% Bacto agar (Difco laboratories, Detroit, Mich.) in alpha medium supplemented with 10% FCS. Colony number was scored with an inverted microscope on day 8. In order to determine cellular maturation, single colonies were picked up with a fine capillary tube, smeared on a glass slide and stained.

[2] = system: normal hemopoietic progenitor cells; experiment: Indirect cloning (two-phase culture) of normal hemopoietic progenitors; assay type: cell-based, human; settings: indirect cloning system, control (0) 70
Experimental: Indirect cloning: Cells were prepared as described for direct cloning, were first incubated for several days in liquid culture supplemented with or without the indicated growth factors or tested fraction, then washed. and cloned in semi-solid medium as described above.
Expansion of normal hemopoietic progenitors—In order to test the effect of SDF on early and late normal hemopoietic progenitors a two-phase culture procedure was employed:
Phase 1 (Expansion phase)—Light density BM or PB cells were incubated for several days in liquid medium supplemented with SDF.
Phase 2 (Clonal phase)—At the end of phase 1, cells were harvested, washed and recultured in either semi solid medium or in liquid medium supplemented with either recombinant human late growth/differentiation factors like GM-CSF, Epo, or 5637-CM, which contains GM, G-CSF. IL-6, IL-1 and other cytokines, but not Epo. […] The lineage specific differentiation of the colonies in Phase 2 depended on the late factor present, e.g., Epo for CFU-E and GM-CSF for CFU-GM.

HL-60 cells [3] = experiment: Cell proliferation assay (3H-thymidine incorporation) on HL-60 cells; assay type: cell-based, human
Experimental: as §1
HL-60 or other cells were cultured at 1.3×10^5/ml in 24-well dish and medium containing 0.5% heat-inactivated FCS and various dilutions of the tested fractions. DNA synthesis was determined on day 4 by incorporation of ^3[H]-thymidine ([…]/150 μl) (5 mCi/mmol, ICN Radiochemicals, Irvine, Calif.) added 12 hrs before harvesting. One unit of SDF was defined as the amount per milliliter required for 50% decrease in ^3H-thymidine incorporation.

WEHI cells = experiment: Leukemic cell cloning (colony formation) of WEHI cells in semi-solid medium; assay type: cell-based, murine; settings: WEHI 300 cells/ml; 8 days; mean of two experiments; G-CSF 100 U/ml, IL-1 100 U/ml
Experimental: as §1, §2

Molecule: CC1=C(/C=C/C(C)=C/C=C/C(C)=C/C(=O)O)C(C)(C)CCC1 [Retinoic acid]
- Colonies: Diffused (fully differentiated) (HL-60 cells [1]): 114
- Colonies: Partially diffused (partially differentiated) (HL-60 cells [1]): 49
- Colonies: Tight (undifferentiated) (HL-60 cells [1]): 0
- Colonies: Total (HL-60 cells [1]): 163

Molecule: O=C(O)c1cc(C(=O)O)c2c(n1)C(=O)C(=O)c1cc(C(=O)O)[nH]c1-2 [PQQ, pyrroloquinoline quinone]
- Colony No. ([2]; PQQ concentration 0.01 μg/ml): 89
- Colony No. ([2]; PQQ concentration 0.1 μg/ml): 109
- Colony No. ([2]; PQQ concentration 1 μg/ml): 130
- Colony No. ([2]; PQQ concentration 5 μg/ml): 148
- inhibition at 0.01 µg/mL (HL-60 cells [3]; Homo sapiens, HL-60, PQQ concentration 0.01 μg/ml, HL60 cells, read-out: Growth inhibition (%)): 0%
- inhibition at 0.05 µg/mL (HL-60 cells [3]; Homo sapiens, HL-60, PQQ concentration 0.05 μg/ml, HL60 cells, read-out: Growth inhibition (%)): 30%
- inhibition at 0.1 µg/mL (HL-60 cells [3]; Homo sapiens, HL-60, PQQ concentration 0.1 μg/ml, HL60 cells, read-out: Growth inhibition (%)): 30%
- inhibition at 0.5 µg/mL (HL-60 cells [3]; Homo sapiens, HL-60, PQQ concentration 0.5 μg/ml, HL60 cells, read-out: Growth inhibition (%)): 40%
- inhibition at 1 µg/mL (HL-60 cells [3]; Homo sapiens, HL-60, PQQ concentration 1 μg/ml, HL60 cells, read-out: Growth inhibition (%)): 40%
- inhibition at 5 µg/mL (HL-60 cells [3]; Homo sapiens, HL-60, PQQ concentration 5 μg/ml, HL60 cells, read-out: Growth inhibition (%)): 60%

B1: G-CSF: growth factor (colony stimulating factor) used for comparison (protein, UniProt P09919 31-207, looked up)
Granulocyte …: TPLGPASSLPQSFLLKCLEQVRKIQGDGAALQEKLVSECATYKLCHPEELVLLGHSLGIPWAPLSSCPSQALQLAGCLSQLHSGLFLYQGLLQALEGISPELGPTLDTLQLDVADFATTIWQQMEELGMAPALQPTQGAMPAFASAFQRRAGGVLVASHLQSFLEVSYRVLRHLAQP
- Colonies: Diffused (fully differentiated) (WEHI cells): 51
- Colonies: Partially diffused (partially differentiated) (WEHI cells): 55
- Colonies: Tight (undifferentiated) (WEHI cells): 25
- Colonies: Total (WEHI cells): 132
- Colonies: Diffused (fully differentiated) (HL-60 cells [1]): 0
- Colonies: Partially diffused (partially differentiated) (HL-60 cells [1]): 12
- Colonies: Tight (undifferentiated) (HL-60 cells [1]): 325
- Colonies: Total (HL-60 cells [1]): 337

B2: ceruloplasmin (protein, UniProt P00450 20-1065, looked up)
Ceruloplasmin: KEKHYYIGIIETTWDYASDHGEKKLISVDTEHSNIYLQNGPDRIGRLYKKALYLQYTDETFRTTIEKPVWLGFLGPIIKAETGDKVYVHLKNLASRPYTFHSHGITYYKEHEGAIYPDNTTDFQRADDKVYPGEQYTYMLLATEEQSPGEGDGNCVTRIYHSHIDAPKDIASGLIGPLIICKKDSLDKEKEKHIDREFVVMFSVVDENFSWYLEDNIKTYCSEPEKVDKDNEDFQESNRMYSVNGYTFGSLPGLSMCAEDRVKWYLFGMGNEVDVHAAFFHGQALTNKNYRIDTINLFPATLFDAYMVAQNPGEWMLSCQNLNHLKAGLQAFFQVQECNKSSSKDNIRGKHVRHYYIAAEEIIWNYAPSGIDIFTKENLTAPGSDSAVFFEQGTTRIGGSYKKLVYREYTDASFTNRKERGPEEEHLGILGPVIWAEVGDTIRVTFHNKGAYPLSIEPIGVRFNKNNEGTYYSPNYNPQSRSVPPSASHVAPTETFTYEWTVPKEVGPTNADPVCLAKMYYSAVEPTKDIFTGLIGPMKICKKGSLHANGRQKDVDKEFYLFPTVFDENESLLLEDNIRMFTTAPDQVDKEDEDFQESNKMHSMNGFMYGNQPGLTMCKGDSVVWYLFSAGNEADVHGIYFSGNTYLWRGERRDTANLFPQTSLTLHMWPDTEGTFNVECLTTDHYTGGMKQKYTVNQCRRQSEDSTFYLGERTYYIAAVEVEWDYSPQREWEKELHHLQEQNVSNAFLDKGEFYIGSKYKKVVYRQYTDSTFRVPVERKAEEEHLGILGPQLHADVGDKVKIIFKNMATRPYSIHAHGVQTESSTVTPTLPGETLTYVWKIPERSGAGTEDSACIPWAYYSTVDQVKDLYSGLIGPLIVCRRPYLKVFNPRRKLEFALLFLVFDENESWYLDDNIKTYSDHPEKVNKDDEEFIESNKMHAINGRMFGNLQGLTMHVGDEVNWYLMGMGNEIDLHTVHFHGHSFQYKHRGVYSSDVFDIFPGTYQTLEMFPRTPGIWLLHCHVTDHIHAGMETTYTVLQNEDTKSG
- activity of the CP fraction separated from SDF (HL-60 cells [3]; CP fraction eluted at about 40% acetonitrile from RP-HPLC Resource column): devoid of activity
